Source: US20250197485A1, “Anti-ED-A Antibodies for the Treatment of Pulmonary Hypertension” (Universitätsklinikum Jena, priority 2022, published 2025)

What was measured:
MCT-induced PH [1] = assay: Right heart catheterization (RVPsys) in mouse model of MCT-induced PH; type: in vivo, C57BL/6 mice; details: day 28; F8 IgG 195 μg i.v. day 14, 16, 18 (p=0.010); MAC 15 mg/kg per os once daily day 14-28 (n.s.)
Text: PH was induced in C57BL/6 mice (bodyweight: 25-30 g). The animals were obtained from ZET facility (Zentale Experimentelle Tierhaltung) of the University Hospital Jena (UKJ, Jena, Germany). Prior to PH induction, mice were allowed to acclimatize for at least 7 days with ad libitum access to food and water as well as controlled light/dark cycles. 41 animals were investigated divided into the following five experimental groups: • 1) sham induced controls (n=7) • 2) MCT induced PH (n=12) • 3) MCT induced PH+MAC (n=6) • 4) MCT induced PH+F8 IgG (n=8) • 5) MCT induced PH+KSF IgG (n=8)
For PH induction, the Monocrotaline (MCT, Carl Roth, Germany) method was used.
The sham induced controls were injected with 30 μl NaCl not containing MCT at day 1 (single dose; intraperitoneally, i.p.). […] The other 4 experimental groups were injected with MCT to induce PH (single dose; intraperitoneally, i.p.; 60 mg/kg body weight; volume 30 μl). Animals in the MCT induced PH+MAC group received the drug (Macitentan, Actelion Pharmaceuticals Ltd.) from day 14 to day 28 (once daily; per os; 15 mg/kg body weight). Animals in the MCT induced PH+F8 IgG group received F8 IgG 3 times on day 14, 16 and 18 (intravenously, i.v.; 195 μg/injection; volume 200 μl). Similarly, animals in the MCT induced PH+KSF IgG group received KSF IgG 3 times on day 14, 16 and 18 (intravenously, i.v.; 195 μg/injection; volume 120 μl).
On day 28 after MCT injection, mice of all experimental groups were deeply anesthetized with a single dose of 100 mg/kg body weight ketamine and 10 mg/kg body weight Xylazin in approximately 60 μl each administered i.p.
Right heart catheterization using a 1.4 F micro conductance pressure-volume catheter (Model SPR-839; Millar Instruments Inc; PowerLab system, ADInstruments Ltd., Oxford, UK) was performed via the right vena jugularis interna to measure the systolic right ventricular pressure and thereby verify the success of the experimental setting. Mice were then sacrificed in deep anesthesia and analgesia to carry out cardiac blood collection after thoracotomy and to harvest the organs.
Statistical analyses were performed using IBM SPSS statistical software, version 28.0 (IBM SPSS Statistics for Windows. Armonk, NY, USA). Data are expressed as mean±standard deviation. Kruskal-Wallis and Mann-Whitney-U test were used to test for significant differences between the different groups. A p-value<0.05 as statistically significant.

MCT-induced PH [2] = assay: Histological evaluation of lung tissue damage (sum-score) in mouse model of MCT-induced PH; type: in vivo, C57BL/6 mice; details: MAC p=0.020; F8 IgG p=0.005; KSF IgG p=0.907
Text: PH was induced in C57BL/6 mice (bodyweight: 25-30 g). The animals were obtained from ZET facility (Zentale Experimentelle Tierhaltung) of the University Hospital Jena (UKJ, Jena, Germany). Prior to PH induction, mice were allowed to acclimatize for at least 7 days with ad libitum access to food and water as well as controlled light/dark cycles. 41 animals were investigated divided into the following five experimental groups: • 1) sham induced controls (n=7) • 2) MCT induced PH (n=12) • 3) MCT induced PH+MAC (n=6) • 4) MCT induced PH+F8 IgG (n=8) • 5) MCT induced PH+KSF IgG (n=8) For PH induction, the Monocrotaline (MCT, Carl Roth, Germany) method was used. The sham induced controls were injected with 30 μl NaCl not containing MCT at day 1 (single dose; intraperitoneally, i.p.). […] The other 4 experimental groups were injected with MCT to induce PH (single dose; intraperitoneally, i.p.; 60 mg/kg body weight; volume 30 μl). Animals in the MCT induced PH+MAC group received the drug (Macitentan, Actelion Pharmaceuticals Ltd.) from day 14 to day 28 (once daily; per os; 15 mg/kg body weight). Animals in the MCT induced PH+F8 IgG group received F8 IgG 3 times on day 14, 16 and 18 (intravenously, i.v.; 195 μg/injection; volume 200 μl). Similarly, animals in the MCT induced PH+KSF IgG group received KSF IgG 3 times on day 14, 16 and 18 (intravenously, i.v.; 195 μg/injection; volume 120 μl). Microscopic evaluation to assess histopathological lung tissue damage was performed using H&E as well as Sirius Red stained lung tissue sections according to a defined sum-score (between 0 and 12; maximum score value=highest level of tissue damage) integrating certain histological alterations frequently occurring in PH: percentage of atelectasis area, percentage of emphysema area, degree of media hypertrophy of peribronchial arteries, presence of perivascular cellular edema of peribronchial arteries, and degree of media hypertrophy of small arteries. Statistical analyses were performed using IBM SPSS statistical software, version 28.0 (IBM SPSS Statistics for Windows. Armonk, NY, USA). Data are expressed as mean±standard deviation. Kruskal-Wallis and Mann-Whitney-U test were used to test for significant differences between the different groups. A p-value<0.05 as statistically significant.

Molecule | attenuation in RVPsys compared to the MCT-induced PH group without treatment (positive control) (MCT-induced PH [1]) | histopathological lung tissue damage (sum-score 0 to 12) compared to the MCT-induced PH group without treatment (MCT-induced PH [2])
CCCNS(=O)(=O)Nc1ncnc(OCCOc2ncc(Br)cn2)c1-c1ccc(Br)cc1 [MAC, Macitentan, reference compound] | not significant | significantly reduced
KSF IgG: Negative control chimaeric antibody specific for hen egg lysozyme, an irrelevant antigen; heavy chain SEQ ID NO: 15, light chain SEQ ID NO: 16 [reference compound] | – | No reduction
